Legend:
Format in all cases: cell-based
HPAC = assay: 3D-CTG proliferation inhibition of HPAC cells; settings: Homo sapiens, read-out: IC50 (nM) KRAS G12D, Table D-2, titled HPAC, cell proliferation, read after the 8th day of incubation, read-out: GP2D, IC50 (nM) KRAS G12D
Procedure: • (1) GP2D and HPAC cells were revived in DMEM medium containing 10% fetal bovine serum and used for experiments after the cells were recovered. • (2) On the first day, the cells were rinsed once with PBS, preheated trypsin was added, and the cells were placed in a 37 °C 5% CO2 incubator for 3-5 minutes. The digestion was terminated by adding an appropriate amount of complete culture medium (containing 10% fetal bovine serum), and the cells were transferred to a centrifuge tube and centrifuged at 1000 rpm for 5 minutes. • (3) The cells were resuspended in complete culture medium, counted, and adjusted to the appropriate cell concentration with complete culture medium. • (4) Using the ECHO 655 ultrasonic liquid handling system, 0.2 µl of the prepared 200× serial dilution compound (final DMSO concentration of 0.5%) was added to a 384-well plate. 40 µl of the cell suspension counted in step (3) was then added to each well and the plate was incubated in a 5% CO2 incubator at 37 °C. • (6) After the 8th day of incubation, 3D CTG detection reagent was added to each well. • (7) Signal values were read using Envision. • (8) Data analysis: • a) DMSO and culture medium were used to test the stability of the experimental method: • H = DMSO well • L = Culture medium well H, CV% (DMSOwell) = 100 × (SDvalueofDMSOwell/averagevalueofDMSOwell) [formula] […]

Panc04.03 = assay: 3D-CTG proliferation inhibition of KRAS G12D mutant cells; settings: Homo sapiens, Panc 04.03, cell proliferation, read after the 7th day of incubation
Procedure: (§1) (1) On the first day, the following cells were revived with the corresponding culture medium and incubated in a 5% CO2 incubator at 37 °C until confluence:
(§2) (2) On the second day, the cells were rinsed once with PBS, preheated trypsin was added, and the cells were placed in a 37 °C 5% CO2 incubator for digestion for 3~5 minutes. The digestion was terminated by adding an appropriate amount of complete culture medium (containing 10% fetal bovine serum), and the cells were transferred to a centrifuge tube and centrifuged at 1000 rpm for 5 minutes. (3) The cells were resuspended in complete culture medium, counted, and adjusted to the appropriate cell concentration with complete culture medium. (4) 90 µl/well of cell suspension was added to a 96-well plate and incubated in a 5% CO2 incubator at 37 °C overnight. (5) Each well was added with 10 µl of the prepared 10× serial dilution compound (final DMSO concentration was 0.5%) and incubated in a 37°C 5% CO2 incubator. (6) After the 7th day of incubation, 50 µl of 3D CTG detection reagent was added to each well and the cells were shaken at 350 rpm for 20 minutes. (7) Signal values were read using an enzyme meter. (8) Data analysis: IC50 values were fitted using the nonlinear regression equation in Graphpad software. […]

ASPC-1 = assay: as above; settings: Homo sapiens, ASPC1, cell proliferation, read after the 7th day of incubation
Procedure: as §1, §2

GP2D = assay: 3D-CTG proliferation inhibition of GP2D cells; settings: cell proliferation, read after the 8th day of incubation, read-out: GP2D, IC50 (nM) KRAS G12D
Procedure: • (1) GP2D and HPAC cells were revived in DMEM medium containing 10% fetal bovine serum and used for experiments after the cells were recovered. • (2) On the first day, the cells were rinsed once with PBS, preheated trypsin was added, and the cells were placed in a 37 °C 5% CO2 incubator for 3-5 minutes. The digestion was terminated by adding an appropriate amount of complete culture medium (containing 10% fetal bovine serum), and the cells were transferred to a centrifuge tube and centrifuged at 1000 rpm for 5 minutes. • (3) The cells were resuspended in complete culture medium, counted, and adjusted to the appropriate cell concentration with complete culture medium. • (4) Using the ECHO 655 ultrasonic liquid handling system, 0.2 µl of the prepared 200× serial dilution compound (final DMSO concentration of 0.5%) was added to a 384-well plate. 40 µl of the cell suspension counted in step (3) was then added to each well and the plate was incubated in a 5% CO2 incubator at 37 °C. • (6) After the 8th day of incubation, 3D CTG detection reagent was added to each well. • (7) Signal values were read using Envision. • (8) Data analysis: • a) DMSO and culture medium were used to test the stability of the experimental method: • H = DMSO well • L = Culture medium well H, CV% (DMSOwell) = 100 × (SDvalueofDMSOwell/averagevalueofDMSOwell) [formula] L, CV% (correspondingculturemediumwell) = 100 × (SDvalueofculturemediumwell/average [formula] value of corresponding culture medium well) [formula] [formula] • b) IC50 values were fitted using the nonlinear regression equation in XLfit 5.5.0 software. Y = Bottom + (Top−Bottom)/(1+10^(∧)((LogIC50−X)*HillSlope)) [formula] • X: Log value of compound concentration • Y: Inhibition rate (% inh)

[1] = test system: pERK in KRAS G12D mutant cell line AGS; assay: Inhibitory effect on intracellular pERK by In-Cell Western Assay (384-well); settings: Homo sapiens; pERK inhibition, AGS cells, 3 h incubation; read-out: AGS, IC50 (nM) KRAS p.G12D
Procedure: (7) The cells were fixed. (8) The cells were washed twice with PBS. (9) The blocking solution was added and the cells were incubated at room temperature for 1 h. […] (11) The cells were washed twice with PBST (PBS + 0.05% Tween 20) for 2 minutes each time.

[2] = test system: pERK in KRAS G12D mutant cell line ASPC-1; assay: Inhibitory effect on intracellular pERK by In-Cell Western Assay (96-well); settings: Homo sapiens, ASPC1; pERK inhibition, ASPC-1 cells, 2 h incubation; read-out: ASPC-1, IC50 (nM) KRAS p.G12D
Procedure: (2) On the first day, the following cells were revived with the corresponding culture medium and incubated in a 5% CO2 incubator at 37 °C until confluence:
(2) On the third day, the culture medium was removed, 2 mL of trypsin was added for digestion, and the cells were placed in an incubator until the cells detached. (3) 5 mL of fresh culture medium was added to resuspend the cells to terminate the digestion, and the cells were gently pipetted and centrifuged at 1000 rpm for 5 minutes at room temperature. (4) The supernatant was removed, and 5 mL of new culture medium was added to resuspend the cells and count them. (5) The cells were adjusted to the appropriate cell concentration with complete culture medium and plated in a 96-well plate. 90 µL of cells were added to each well, the cells were incubated in a 5% CO2 incubator at 37 °C overnight. (6) 10 µL of the prepared serial dilution compound (DMSO final concentration was 0.5%) was added and the cells were incubated in a 5% CO2 incubator at 37 °C for 2 h. (7) The supernatant was discarded, and 200 µL of 4% paraformaldehyde fixative was added to fix the cells. (8) The cells were washed three times with TBST. (9) The blocking solution was added and the cells were incubated at room temperature for 1 h. […]

Row | Structure (SMILES) | IC50 (GP2D) [nM] | further results
1 | C#Cc1c(F)ccc2cc(O)cc(-c3nc(C#CC)c4c(N5CC6CCC(C5)N6)nc(OCC56CC(=C)CN5CC(=C)C6)nc4c3F)c12 [Example 2] | 0.17 | IC50 (HPAC): 0.77 nM; IC50 (Panc04.03): 0.85 nM; IC50 (ASPC-1): 0.42 nM; IC50 [1]: 0.4 nM; IC50 [2]: 0.86 nM
2 | C=C1CN2CC(=C)CC2(COc2nc(N3CC4CCC(C3)N4)c3c(C#CC)nc(-c4cc(O)cc5ccc(F)c(CC)c45)c(F)c3n2)C1 [Example 9] | 0.19 | –
3 | C#Cc1c(F)ccc2cc(O)cc(-c3nc(C#C)c4c(N5CC6CCC(C5)N6)nc(OCC56CC(=C)CN5CC(=C)C6)nc4c3F)c12 [Example 6] | 1.6 | –
4 | C=C1CN2CC(=C)CC2(COc2nc(N3CC4CCC(C3)N4)c3c(C#CC)nc(-c4cc(N)cc(Cl)c4C(F)(F)F)c(F)c3n2)C1 [Example 10] | 12.4 | –
5 | C#Cc1c(F)ccc2cc(O)cc(-c3nc(C#CC)c4c(N5CC6CCC(C5)N6)nc(OCC56CCCN5CC(=C)C6)nc4c3F)c12 (centres unmarked) [Example 5] | 0.07 | –
6 | C#Cc1c(F)ccc2cc(O)cc(-c3nc(C#CC)c4c(N5CC6CCC(C5)N6)nc(OCC56CCCN5CC(=CF)C6)nc4c3F)c12 (centres unmarked) [Example 11] | 0.03 | –
